Source: patent publication US6452032B1, “Organosilyl compounds having nuclear hormone receptor modulating activity” (Allergan Sales, LLC, priority 1999, dated 2002)
Where two headings read alike, the source gives them in different places.

Tests used:
[1] = target: T1, RXRβ (Homo sapiens, UniProt P28702); assay: Competition binding assay, radiolabeled 9-cis retinoic acid, RXRβ; settings: competition with radiolabeled 9-cis retinoic acid; read-out: Bind (KD50) RXRβ
T1 construct: encoding the full length receptors RARα, RARβ, RARγ, RXRα, RXRβ, and RXRγ; expressed in transfected cells
T1 sequence (P28702 1-533): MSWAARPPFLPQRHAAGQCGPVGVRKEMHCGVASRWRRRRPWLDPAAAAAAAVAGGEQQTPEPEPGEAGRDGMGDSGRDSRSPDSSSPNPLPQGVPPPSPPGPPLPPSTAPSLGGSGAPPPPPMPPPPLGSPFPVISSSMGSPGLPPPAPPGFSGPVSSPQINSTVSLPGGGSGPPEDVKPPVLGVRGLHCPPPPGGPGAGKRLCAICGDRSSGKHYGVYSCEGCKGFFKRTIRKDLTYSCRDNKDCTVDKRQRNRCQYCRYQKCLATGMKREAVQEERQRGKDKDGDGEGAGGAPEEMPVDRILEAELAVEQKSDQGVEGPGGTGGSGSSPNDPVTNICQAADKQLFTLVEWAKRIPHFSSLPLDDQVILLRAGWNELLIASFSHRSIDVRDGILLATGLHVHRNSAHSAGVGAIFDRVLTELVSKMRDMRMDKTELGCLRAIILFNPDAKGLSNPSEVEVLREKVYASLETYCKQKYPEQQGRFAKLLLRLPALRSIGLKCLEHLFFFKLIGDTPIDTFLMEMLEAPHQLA
Method: (§1) Binding assays were performed using a classic competition assay format in which cloned receptor RAR mand RXR molecules were first loaded with either radiolabeled all-trans-retinoic acid (RAR) or radiolabeled 9-cis retinoic acid (RXR), and then the amount of radioactivity liberated with increasing concentration of test compound was measured.
(§2) These compounds are designated AGN 192192, AGN 192337, AGN 192294, AGN 192295, and AGN 192452, respectively. EC50 designates the concentration of the tested compound which was able to give a 50% maximal transcription of the reporter gene; KD50 indicates the concentration of the tested compound at which 50% of the compound molecules are bound to the receptor. NT indicates those points that were not tested in the particular experiment.

[2] = target: T1, RXRβ; assay: Transactivation assay, luciferase reporter, full length RXRβ; format: cell-based; settings: concentration giving 50% maximal transcription of the reporter gene; read-out: Trans (EC50) RXRβ
Method: (§3) Retinoic acid receptor transactivation activity and binding efficiencies were determined essentially as described in U.S. Pat. Nos.: 5,298,429 and 5,071,773, incorporated by reference herein. Transactivation assays employed expression plasmids encoding the full length receptors RARα, RARβ, RARγ, RXRα, RXRβ, and RXRγ. Reporter plasmids contained the herpes virus thymidine kinase promoter and the appropriate retinoid acid receptor response element (RAREs) or retinoid X receptor response element (RXREs) positioned upstream of an open coding region encoding firefly luciferase.
as §2

[3] = target: T2, RARα (Homo sapiens, UniProt P10276); assay: Competition binding assay, radiolabeled all-trans-retinoic acid, RARα
T2 sequence (P10276 1-462): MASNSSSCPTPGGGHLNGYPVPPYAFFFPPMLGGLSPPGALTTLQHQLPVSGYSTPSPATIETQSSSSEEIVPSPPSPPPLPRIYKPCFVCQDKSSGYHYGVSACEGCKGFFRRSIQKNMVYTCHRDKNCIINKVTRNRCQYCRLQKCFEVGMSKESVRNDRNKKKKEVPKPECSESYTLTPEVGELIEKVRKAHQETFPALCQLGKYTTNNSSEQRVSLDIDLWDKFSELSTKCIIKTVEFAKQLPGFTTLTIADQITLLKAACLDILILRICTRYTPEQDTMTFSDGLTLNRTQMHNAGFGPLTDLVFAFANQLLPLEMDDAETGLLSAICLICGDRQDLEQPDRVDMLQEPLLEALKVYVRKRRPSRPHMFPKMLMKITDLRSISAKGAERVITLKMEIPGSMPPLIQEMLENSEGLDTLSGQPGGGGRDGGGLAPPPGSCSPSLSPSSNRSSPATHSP
Method: as §1, §2

[4] = target: T3, RXRγ (Homo sapiens, UniProt P48443); assay: Transactivation assay, luciferase reporter, full length RXRγ; format: cell-based; settings: concentration giving 50% maximal transcription of the reporter gene; read-out: Trans (EC50) RXRγ
T3 construct: encoding the full length receptors RARα, RARβ, RARγ, RXRα, RXRβ, and RXRγ; expressed in transfected cells
T3 sequence (P48443 1-463): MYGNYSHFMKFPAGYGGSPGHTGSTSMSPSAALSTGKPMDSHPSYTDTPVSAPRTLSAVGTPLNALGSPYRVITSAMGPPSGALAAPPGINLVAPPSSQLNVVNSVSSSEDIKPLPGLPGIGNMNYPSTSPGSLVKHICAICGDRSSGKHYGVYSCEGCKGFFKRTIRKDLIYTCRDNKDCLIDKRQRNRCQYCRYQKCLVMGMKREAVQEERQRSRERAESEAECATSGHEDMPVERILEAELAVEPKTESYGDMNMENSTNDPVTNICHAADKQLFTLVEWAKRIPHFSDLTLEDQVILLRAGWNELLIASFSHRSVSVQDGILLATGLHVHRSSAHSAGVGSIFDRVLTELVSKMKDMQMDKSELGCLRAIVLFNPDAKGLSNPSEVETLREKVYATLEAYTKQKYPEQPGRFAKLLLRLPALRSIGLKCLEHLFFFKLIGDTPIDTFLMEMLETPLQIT
Method: as §3, §2

[5] = target: T4, RXRα (Homo sapiens, UniProt P19793); assay: Transactivation assay, luciferase reporter, full length RXRα; format: cell-based; settings: concentration giving 50% maximal transcription of the reporter gene; read-out: Trans (EC50) RXRα
T4 construct: encoding the full length receptors RARα, RARβ, RARγ, RXRα, RXRβ, and RXRγ; expressed in transfected cells
T4 sequence (P19793 1-462): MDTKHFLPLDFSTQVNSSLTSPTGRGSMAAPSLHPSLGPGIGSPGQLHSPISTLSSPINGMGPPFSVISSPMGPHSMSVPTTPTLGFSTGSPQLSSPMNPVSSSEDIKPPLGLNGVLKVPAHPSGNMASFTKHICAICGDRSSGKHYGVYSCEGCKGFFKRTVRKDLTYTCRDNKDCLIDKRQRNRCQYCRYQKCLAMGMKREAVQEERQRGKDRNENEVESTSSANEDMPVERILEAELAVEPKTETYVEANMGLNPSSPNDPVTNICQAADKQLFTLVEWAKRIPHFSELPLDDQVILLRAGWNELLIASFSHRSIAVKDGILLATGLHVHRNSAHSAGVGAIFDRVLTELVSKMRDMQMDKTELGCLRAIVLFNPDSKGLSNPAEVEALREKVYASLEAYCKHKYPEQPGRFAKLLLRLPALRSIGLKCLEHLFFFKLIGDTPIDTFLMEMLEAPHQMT
Method: as §3, §2

[6] = target: T2, RARα; assay: Transactivation assay, luciferase reporter, full length RARα; format: cell-based; settings: concentration giving 50% maximal transcription of the reporter gene; read-out: Trans (EC50) RARα
Method: as §3, §2

[7] = target: T5, RARγ (Homo sapiens, UniProt P13631); assay: Competition binding assay, radiolabeled all-trans-retinoic acid, RARγ
T5 sequence (P13631 1-454): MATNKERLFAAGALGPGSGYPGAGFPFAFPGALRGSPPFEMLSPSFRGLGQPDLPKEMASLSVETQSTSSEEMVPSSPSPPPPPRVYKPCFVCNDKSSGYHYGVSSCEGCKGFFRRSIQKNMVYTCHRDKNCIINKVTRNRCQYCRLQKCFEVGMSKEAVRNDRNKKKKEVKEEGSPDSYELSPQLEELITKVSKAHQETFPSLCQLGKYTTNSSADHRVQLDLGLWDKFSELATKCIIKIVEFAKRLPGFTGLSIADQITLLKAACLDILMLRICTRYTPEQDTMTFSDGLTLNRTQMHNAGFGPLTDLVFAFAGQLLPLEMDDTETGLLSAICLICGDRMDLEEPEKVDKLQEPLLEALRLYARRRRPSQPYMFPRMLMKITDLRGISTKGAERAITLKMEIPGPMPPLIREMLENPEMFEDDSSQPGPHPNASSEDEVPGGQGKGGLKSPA
Method: as §1, §2

[8] = target: T6, RARβ (Homo sapiens, UniProt P10826); assay: Competition binding assay, radiolabeled all-trans-retinoic acid, RARβ
T6 construct: expressed in transfected cells
T6 sequence (P10826 1-455): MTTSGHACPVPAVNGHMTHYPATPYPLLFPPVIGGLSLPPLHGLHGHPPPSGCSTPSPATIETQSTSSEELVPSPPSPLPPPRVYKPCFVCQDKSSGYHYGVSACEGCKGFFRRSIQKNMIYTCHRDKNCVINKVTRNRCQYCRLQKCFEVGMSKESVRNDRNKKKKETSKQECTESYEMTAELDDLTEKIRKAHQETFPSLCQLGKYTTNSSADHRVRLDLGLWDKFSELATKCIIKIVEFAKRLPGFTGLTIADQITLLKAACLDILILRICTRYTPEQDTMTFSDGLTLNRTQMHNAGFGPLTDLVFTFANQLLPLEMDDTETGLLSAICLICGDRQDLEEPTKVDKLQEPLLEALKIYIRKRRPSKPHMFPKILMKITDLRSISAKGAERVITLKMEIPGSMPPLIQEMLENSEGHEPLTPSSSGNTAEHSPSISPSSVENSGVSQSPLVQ
Method: as §1, §2

[9] = target: T6, RARβ; assay: Transactivation assay, luciferase reporter, full length RARβ; format: cell-based
Method: as §3, §2

[10] = target: T4, RXRα; assay: Competition binding assay, radiolabeled 9-cis retinoic acid, RXRα; settings: competition with radiolabeled 9-cis retinoic acid; read-out: Bind (KD50) RXRα
Method: as §1, §2

[11] = target: T3, RXRγ; assay: Competition binding assay, radiolabeled 9-cis retinoic acid, RXRγ; settings: competition with radiolabeled 9-cis retinoic acid; read-out: Bind (KD50) RXRγ
Method: as §1, §2

[12] = target: T5, RARγ; assay: Transactivation assay, luciferase reporter, full length RARγ; format: cell-based
Method: as §3, §2

[13] = competition with radiolabeled all-trans-retinoic acid, read-out: Bind (KD50) RARα
[14] = competition with radiolabeled all-trans-retinoic acid, read-out: Bind (KD50) RARγ
[15] = competition with radiolabeled all-trans-retinoic acid, read-out: Bind (KD50) RARβ
[16] = concentration giving 50% maximal transcription of the reporter gene, read-out: Trans (EC50) RARβ

Structure (SMILES) | Kd [3, 13] | EC50 [4] | EC50 [5] | EC50 [6] | Kd [7, 14] | Kd [8, 15] | EC50 [9, 16] | other results
Cc1cc2c(cc1/C(=C/c1ccc(C(=O)C(=O)O)cc1)[Si](C)(C)C)C(C)(C)CCC2(C)C [Compound 192192] | 2640 nM | 960 nM | 990 nM | 550 nM | 2020 nM | 699 nM | 88 nM | Kd [1]: > 1000 nM; EC50 [2]: 780 nM; Kd [10]: > 1000 nM; Kd [11]: > 1000 nM
CC1(C)CCC(C)(C)c2cc(/C(=C/c3ccc(C(=O)O)s3)[Si](C)(C)C)ccc21 [Compound 192295] | 1300 nM |  |  | 350 nM | 1550 nM | 499 nM | 290 nM | EC50 ([12]; concentration giving 50% maximal transcription of the reporter gene, read-out: Trans (EC50) RARγ): 330 nM
CC1(C)CCC(C)(C)c2cc(/C(=C/c3ccc(C(=O)C(=O)O)cc3)[Si](C)(C)C)ccc21 [Compound 192337] |  |  |  |  |  |  |  | Kd [3]: 2280 nM; EC50 [12]: 1500 nM; Kd [7]: 5840 nM; Kd [8]: 2430 nM; EC50 [9]: 260 nM

Continued, in another order:

Kd [3, 13] | EC50 [4] | EC50 [5] | EC50 [6] | Kd [7, 14] | Kd [8, 15] | EC50 [9, 16] | Structure (SMILES) | other results
 |  |  |  | 8940 nM | 8000 nM |  | Cc1cc2c(cc1/C(=C/c1ccc(C(=O)O)s1)[Si](C)(C)C)C(C)(C)CCC2(C)C [Compound 192294] | 
 | 2900 nM | 3100 nM |  | 4520 nM | 3300 nM |  | CC1(C)CC(C)(C)c2cc(/C(=C/c3ccc(C(=O)C(=O)O)cc3)[Si](C)(C)C)ccc2O1 [Compound 192452] | 
